The source of these data is patent publication US12575571B2, “1-amino-1-cyclopropanecarboxylic acid and methyl jasmonate mixtures and uses thereof” (Valent BioSciences LLC, priority 2022, dated 2026).

In assay [1] the test system is unripened apples, Imperial Gala variety. Description: Apple coloration in Imperial Gala variety (percent red pixel area after foliar spray). The format is in vivo. As to conditions: 34 hours post spray; for Fold Change From control: vs 0.05% Regulaid control. As to the method:
10 sets of unripened apples, Imperial Gala variety, harvested three weeks before the normal harvest date, were each foliar sprayed with either 1) 0.05% Regulaid® as a control, 2) 50 ppm methyl jasmonate, 3) 300 ppm methyl jasmonate, 4) 50 ppm ACC, 5) 300 ppm ACC or 6) a mixture of 50 ppm methyl jasmonate and 50 ppm ACC or 7) a mixture of 300 ppm methyl jasmonate and 300 ppm ACC. 34 hours post spray application percent red pixel area (shaded) was measured. Percent red pixel area is an indication of the coloration of the apple fruit.
(§1) To determine if the mixture provided unexpected results, the observed combined efficacy (“OCE”) was divided by the expected combined efficacy (“ECE”) wherein the ECE is calculated by the Abbott method: ECE=A+B−(AB/100), wherein ECE is the expected combined efficacy and in which A and B are the fold change from control given by the single active ingredients. If the ratio between the OCE of the mixture and the ECE of the mixture is greater than 1, then greater than expected interactions are present in the mixture. (Gisi, Synergistic Interaction of Fungicides in Mixtures, The American Phytopathological Society, 86:11, 1273-1279,1996).

Assay [2] has as its system unripened apples, Ultima Gala variety. The assay is described as follows: Apple coloration in Ultima Gala variety (percent red pixel area after foliar spray). The format is in vivo. The settings on record: 34 hours post spray; for Fold Change From control: vs 0.05% Regulaid control. As to the method: as §1
10 sets of unripened apples, Ultima Gala variety, harvested three weeks before the normal harvest date, were each foliar sprayed with either 1) 0.05% Regulaid® as a control, 2) 50 ppm methyl jasmonate, 3) 300 ppm methyl jasmonate, 4) 50 ppm ACC, 5) 300 ppm ACC or 6) a mixture of 50 ppm methyl jasmonate and 50 ppm ACC or 7) a mixture of 300 ppm methyl jasmonate and 300 ppm ACC. 34 hours post spray application percent red pixel area (shaded) was measured. Percent red pixel area is an indication of the coloration of the apple fruit.

Setting [3] is: 50 ppm (each active) foliar spray.
The mark [4] stands for this setting: 300 ppm (each active) foliar spray.

Regarding `CC/C=C\CC1C(=O)CCC1CC(=O)OC` (centres unmarked) [methyl jasmonate], the “Average % Red Pixel Area” value in assay [1] (setting [3]) is recorded as 63.31%; in assay [1] (setting [4]) it was 47.60%; in assay [2] (setting [3]) it was 36.64%; in assay [2] (setting [4]) it was 46.37%. The “Fold Change From control” value in assay [1] (50 ppm (each active)) stood at 8.31; in assay [1] (300 ppm (each active)), 6.00; in assay [2] (50 ppm (each active)), 2.30; in assay [2] (300 ppm (each active)), 3.17.
